Results taken from patent publication US9029414B2, “Triterpenoid compounds and methods of use thereof” (Biotechnology Research Corporation, priority 2008, dated 2015).

System: cortical neurons
Assay: Cortical neuron survival assay against NMDA excitotoxicity (LDH)
Type: cell-based, Sprague-Dawley rats
Conditions: 30 μM 24 hrs, NMDA 10-200 μM 20 min; at high concentrations of NMDA
Description: FIG. 12. Derivatives of DA001 rescue the cortical neurons from NMDA excitotoxicity. Cortical neurons were treated with compounds derived from of DA001 (30 μM) 24 hours prior to NMDA treatment. LDH released into the medium were measured 24 hours after NMDA treatment. Data are expressed as mean±s.e.m. and compared to solvent control (DMSO). *=P<0.05.
Hippocampal neurons/cortical neurons were prepared from embryonic day 18 Sprague-Dawley rats. […] Afterwards, cells were incubated in growth medium for 18-24 hours and detected with Cytotoxicity Detection Kit (1644793, Roche).
Cortical neurons were treated with DA021 or DA034 and subsequently subjected to varying concentrations of NMDA. […] LDH release into the medium was then measured.
Compounds with strong protective effect (>80% survival) against NMDA excitotoxicity are prototype DA001, derivatives DA010, DA021, DA034, DA040, DA081 and DA088. […] LDH released into the medium were measured 24 hours after NMDA treatment. Data are expressed as averaged percentage of cell survival (±s.e.m) calculated against solvent control (DMSO) and compared to no NMDA control (set as 100% survival). […]

C=C(C)[C@@H]1CC[C@]2(/C=N/O)CC[C@]3(C)C(CCC4[C@@]5(C)CCC(=O)[C@@](C)(CO)[C@@H]5CC[C@]43C)C12 (some centres unmarked) [DA021]
cell death (LDH release) vs DMSO control: significant reduction in cell death

CC(=O)OC[C@]12CC[C@@H](C3(C)CO3)C1C1CCC3[C@@]4(C)CC[C@H](O)[C@@](C)(CO)[C@@H]4CC[C@@]3(C)[C@]1(C)CC2 (some centres unmarked) [DA034]
cell death (LDH release) vs DMSO control: significant reduction in cell death
